Consider 30 compounds from article PMC10432564, “Pharmacological perturbation of the phase-separating protein SMNDC1” (Nature Communications, 2023).

Usually IC50 stands for the midpoint of a concentration-inhibition curve.

One experiment deals with SMNDC1-GFP αTC1 clones. As to the kind of experiment: Live imaging of endogenously tagged SMNDC1-GFP. The format is cell-based, mouse. From the text:
Cell lines with fluorescent tags in the endogenous intron loci of different genes were generated as described in Serebrenik et al., and Reicher et al.[39],[74]. Cells were transiently transfected using Avalanche-Everyday Transfection Reagent with three plasmids in parallel: (1) the donor plasmid containing the artificial intron with splice acceptor and splice donor site, the fluorescent tag GFP or RFP, and a possible correction for the frame of the targeted intron, (2) a pX330 backbone containing Cas9 and the gRNA against the donor plasmid, and (3) a plasmid expressing the gRNA against the target intron (see table below). After 3–5 days, GFP- and/or RFP-positive cells were sorted on a SONY SH800 Cell Sorter to get fluorescent single cell clones. Clones were validated for the correct integration of the intron-tag via comparison of live cell images to publicly available or in-house IF images, genomic DNA PCR amplification of the respective loci, and western blots with antibodies against the target protein and/or the fluorescent tag.
Cells were imaged on a PerkinElmer Opera Phenix automated microscope with 500 ms exposure time in either GFP or RFP channel, or on a Zeiss LSM 980 microscope. For condition-independent identification nuclear markers such as Hoechst or DRAQ5^TM were used.
Images were analyzed using the high-content image acquisition and analysis software Harmony® 4.9 developed by PerkinElmer. First, nuclei were identified in the channel of the nuclear marker (DAPI/ Hoechst/ DRAQ5^TM) (with Method C, Common Threshold 0.75, Area > 10 µm^2). After the identification of nuclei, their corresponding cytoplasm was also identified using the respective nucleic acid marker (with Method A, Individual Threshold 0.15). Even though the highest staining of these nuclear markers is obviously detected in the nucleus they still produce a significant staining of the cytoplasm above background. After defining the respective cell areas, mean intensity in the different channels was measured. Finally, spots were identified with the according “Spots” algorithm (with Method A, Relative Spot Intensity > 0.053, Splitting Sensitivity: 1.0).

For another experiment, the target named is SMN Tudor domain (Homo sapiens, UniProt Q16637). As to the kind of experiment: AlphaScreen, SMN Tudor domain / sDMA-peptide interaction. (Alpha assays give light when donor and acceptor beads are brought close together.)
Another experiment deals with T1, SMNDC1 Tudor domain (Homo sapiens, UniProt O75940).
T1 sequence (O75940 65-128): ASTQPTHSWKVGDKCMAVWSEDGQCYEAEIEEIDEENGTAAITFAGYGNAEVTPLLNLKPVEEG
Description: AlphaScreen, SMNDC1 Tudor domain / sDMA-peptide interaction. As to conditions: for effect of the structural modification on potency / IC50: structure-activity relationships around compound 1; for selectivity between SMNDC1 and SMN: AlphaScreen SMNDC1 vs SMN.

Some results are limits rather than exact numbers.

SMN Tudor domain, sequence (Q16637 84-147): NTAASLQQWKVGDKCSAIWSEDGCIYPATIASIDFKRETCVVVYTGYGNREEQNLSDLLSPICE
Description for SMN Tudor domain: To establish an AlphaScreen[50], we coupled donor beads to purified SMNDC1’s (or SMN’s) Tudor domain via a His-Tag and acceptor beads to a biotinylated peptide corresponding to the C-terminal region of the Small nuclear ribonucleoprotein Sm D3 containing four sDMAs (Fig. 4a). […] To identify ideal concentrations for screening, we performed a cross-titration of Tudor domains and binding peptides (Supplementary Fig. 3b).
(§1) The AlphaScreen was conducted in 20 mM sodium phosphate pH 6.5, 50 mM NaCl, Tween 0.01%, BSA 0.1%. Protein concentration was optimized for each batch of purified protein. Optimal concentration was chosen at the lowest concentration with ~80% of maximum signal. […] In the first step, 10 µl of the protein solution containing either SMNDC1’s or SMN’s Tudor domain coupled to a 6xHis-Tag were distributed to 384-well plates pre-spotted with compounds and controls, shaken and incubated for 30 min at RT. Afterwards, 10 µl of peptide solution was added to each well and incubated for 1 h at RT. Finally, 5 µl of a solution containing both Streptavidin Donor and nickel chelate (Ni-NTA) Acceptor beads was added and again incubated for 1 h at RT.
Description for SMNDC1 Tudor domain: To pharmacologically perturb SMNDC1 function, we set out to identify small molecule inhibitors of SMNDC1’s Tudor domain based on perturbing its interaction with a dimethylarginine peptide. To establish an AlphaScreen[50], we coupled donor beads to purified SMNDC1’s (or SMN’s) Tudor domain via a His-Tag and acceptor beads to a biotinylated peptide corresponding to the C-terminal region of the Small nuclear ribonucleoprotein Sm D3 containing four sDMAs (Fig. 4a). […] To identify ideal concentrations for screening, we performed a cross-titration of Tudor domains and binding peptides (Supplementary Fig. 3b).
as §1
Category Parameter Description
Assay Type of assay In vitro AlphaScreen / luminescence proximity
Target Tudor domain of SMNDC1
Primary measurement Decrease in luminescence signal reflecting
disruption of heterodimeric complex between
SMNDC1-Tudor domain and a peptide
corresponding to the C-terminus of Small nuclear
ribonucleoprotein Sm D3 containing 4 sDMAs
Key reagents AlphaScreen no-wash assay kit containing
Streptavidin Donor beads and nickel chelate (Ni-
NTA) AlphaScreen Acceptor beads (PerkinElmer
Assay protocol Described in Methods section
Screen Format PerkinElmer OptiPlate-384 well plate
Concentration(s) tested Typically 10 μM (0.1% DMSO)
Plate controls 32 positive control wells (Mitoxantrone, quencher),
32 negative control wells (DMSO)
Reagent/ compound dispensing system Echo 520 Liquid Handler Multidrop™ Combi
Normalization Raw signal was normalized plate-specifically by
correcting row and column-specific mean signals to
the mean signal of the entire plate, each after
removing the highest and lowest 25% of values. Raw
signal was then converted to percent of control
signal, but linear regression to plate-specific mean
signal of DMSO wells (set to 100 percent of control)
and positive control wells (set to 0% of control), after
outlier removal using a Grubbs test.
unspecific quenchers), Secondary screen (with

As to `OCCCCCCO` [1,6-hexanediol, reference compound], the “focal localization of SMNDC1-GFP within the nucleus” value with SMNDC1-GFP αTC1 clones (live cells, 2.5% or 5%) is listed as “losing its focal localization within the nucleus”.
Take `O=C(Nc1nc(-c2ccccn2)cs1)c1ccc(S(=O)(=O)N2CCOCC2)cc1` [Fig. 4e]: the figures for the IC50 against SMN Tudor domain and against SMNDC1 Tudor domain were 0.64 µM and 0.77 µM, respectively.
In the same order, the values of `COc1ccc(Cc2nnc(NC(=O)Cc3cccs3)s2)cc1OC` [Fig. 4g] are 5.8 µM and 2.3 µM.
For the compound `CC1NC(=O)NC1CCCCCC(=O)OCC(=O)c1ccccc1` (centres unmarked) [Fig. 4h], the 50% inhibitory concentration (IC50) at SMN Tudor domain amounted to 4 µM; against SMNDC1 Tudor domain, 0.19 µM.
Turning to `CCc1ccccc1NC(=O)c1cccc2c1C(=O)N(c1ccc(OC)cc1)C2` [Fig. 4i], the IC50 was found to be 3.9 µM at SMN Tudor domain and 1.4 µM at SMNDC1 Tudor domain.
Taken in the same sequence, the figures for `Cc1cc(C)n2c(Nc3ccccc3C)c(-c3ccccn3)nc2n1` [Fig. 4k] were 1.2 µM and 1.1 µM.
In the same order, the values of `CCN(CC)S(=O)(=O)c1ccc(C(=O)Nc2nc(-c3cccnc3)cs2)cc1` [compound 3] are > 50 µM and > 50 µM.
On to `CN(C)S(=O)(=O)c1ccc(C(=O)Nc2nc(-c3ccncc3)cs2)cc1` [compound 4], for which the results for the IC50 on SMN Tudor domain and against SMNDC1 Tudor domain were 3.03 µM and 9.56 µM, respectively.
With `COc1ccccc1-c1csc(NC(=O)c2ccc(S(=O)(=O)N(C)C)cc2)n1` [compound 5], the values for the IC50 on SMN Tudor domain and against SMNDC1 Tudor domain were 1.7 µM and 0.92 µM, respectively.
In the same order, the values of `Cc1ccc(-c2csc(NC(=O)c3ccc(S(=O)(=O)N4CCCC4)cc3)n2)o1` [compound 6] are 29.4 µM and 33.7 µM.
In the same order, the values of `O=C(Nc1nc(-c2cccs2)cs1)c1ccc(S(=O)(=O)N2CCCC2)cc1` [compound 7] are > 50 µM and > 50 µM.
Consider `N#Cc1cccc(C(=O)Nc2nc(-c3ccc[nH]3)cs2)c1` [compound 8], for which the half-maximal inhibitory concentration (IC50) against SMN Tudor domain stood at 8.24 µM; against SMNDC1 Tudor domain it was 4.05 µM. Moreover, on SMNDC1 Tudor domain, the “effect of the structural modification on potency / IC50” value (“effect … on potency / IC50” below) is reported as “some loss of potency”.
For the compound `CCOC(=O)c1csc(NC(=O)c2ccc(S(=O)(=O)N(C)C)cc2)n1` [compound 9], in the experiment on SMNDC1-GFP αTC1 clones (50 µM, 12–16 h), the “SMNDC1-GFP spots within the nucleus” value was “not observed” and the “SMNDC1 within the nucleus (nuclear SMNDC1-GFP)” value is “not observed”. The IC50 against SMN Tudor domain is > 50 µM. Moreover, on SMNDC1 Tudor domain, the IC50 is > 50 µM and the “effect … on potency / IC50” value is on record as “complete loss of activity”.
For `Cc1sc(NC(=O)c2ccc(S(=O)(=O)N(C)C)cc2)nc1-c1ccccn1` [compound 10], the figures for the IC50 against SMN Tudor domain and against SMNDC1 Tudor domain were 1.26 µM and 0.45 µM, respectively. Also, the “effect … on potency / IC50” value on SMNDC1 Tudor domain is reported as “without loss of potency”.
For the compound `CCc1sc(NC(=O)c2ccc(S(=O)(=O)N(C)C)cc2)nc1-c1ccccn1` [compound 11], the IC50 against SMN Tudor domain came out at 3.52 µM; against SMNDC1 Tudor domain, 1.4 µM.
In the same order, the values of `CN(C)S(=O)(=O)c1ccc(C(=O)Nc2nc(-c3ccccn3)c(Br)s2)cc1` [compound 12] are 3.84 µM and 1.37 µM.
Consider `Nc1csc(-c2ccccn2)n1` [compound 14], for which the 50% inhibitory concentration (IC50) against SMN Tudor domain stood at 5.35 µM; on SMNDC1 Tudor domain it was 1.78 µM.
As for `Nc1ncc(-c2ccccn2)s1` [compound 15], the IC50 on SMN Tudor domain amounted to 15.2 µM. Besides, on SMNDC1 Tudor domain, the IC50 is > 50 µM; the “selectivity between SMNDC1 and SMN” value is “preferentially inhibited SMN over SMNDC1”; the “effect … on potency / IC50” value is on record as “significant loss of activity”.
On to `Nc1nc(-c2ccccn2)co1` [compound 16], for which the half-inhibitory concentration (IC50) on SMN Tudor domain is > 50 µM; against SMNDC1 Tudor domain, 20.7 µM. Further, the drop in potency on SMNDC1 Tudor domain (thiazole replaced with analogous oxazole) is 40 fold.
With `COc1ccc(CCNc2nc(-c3ccccn3)cs2)cc1OC` [compound 17], the IC50 at SMN Tudor domain was determined as 2 µM; against SMNDC1 Tudor domain, 1.42 µM.
Taken in the same sequence, the figures for `O=S(=O)(Nc1nc(-c2ccccn2)cs1)c1ccccc1` [compound 18] were 2.55 µM and 1 µM.
For `N=C(N)Nc1nc(-c2ccccn2)cs1` [compound 19], the values for the IC50 against SMN Tudor domain and on SMNDC1 Tudor domain were 13.2 µM and 14.5 µM, respectively.
Taken in the same sequence, the figures for `O=C(Nc1nc(-c2ccccn2)cs1)C1CC1` [compound 20] were 2.93 µM and 2.12 µM.
For the compound `CCn1ccc(C(=O)Nc2nc(-c3ccccn3)cs2)n1` [compound 21], the half-maximal inhibitory concentration (IC50) on SMN Tudor domain stood at 1.16 µM; against SMNDC1 Tudor domain it was 1.09 µM.
Regarding `Cc1ccc(C(=O)Nc2nc(-c3ccccn3)cs2)o1` [compound 22], the concentration for half-maximal inhibition (IC50) is 0.9 µM on SMN Tudor domain and 0.47 µM on SMNDC1 Tudor domain.
In the same order, the values of `Cc1ccnc2nc(C(=O)Nc3nc(-c4ccccn4)cs3)nn12` [compound 24] are 1.35 µM and 0.81 µM.
As for `CC(C)(C)CNC(=O)c1ccc(C(=O)Nc2nc(-c3ccccn3)cs2)cc1` [compound 25], the results for the IC50 on SMN Tudor domain and against SMNDC1 Tudor domain were 9.82 µM and 1.47 µM, respectively. Also, the “selectivity between SMNDC1 and SMN” value at SMNDC1 Tudor domain is on record as “increased selectivity for SMNDC1 over SMN”.
As for `O=C(O)c1ccc(C(=O)Nc2nc(-c3ccccn3)cs2)cc1` [compound 26], the IC50 at SMN Tudor domain stood at 3.38 µM; on SMNDC1 Tudor domain, 1.1 µM.
As for `O=C(Nc1nc(-c2ccccn2)cs1)c1ccc(-n2cnnn2)cc1` [compound 27], the values for the IC50 on SMN Tudor domain and at SMNDC1 Tudor domain were 1.23 µM and 0.73 µM, respectively.
In the case of `CC(C)(C)OC(=O)NCCNC(=O)c1ccc(C(=O)Nc2nc(-c3ccccn3)cs2)cc1` [compound 28], the “effects on SMNDC1 and SRRM2 localization” value in the experiment on SMNDC1-GFP αTC1 clones (double-tagged SMNDC1-GFP SRRM2-RFP αTC1-clone, 50/25/12.5/6.25/3.125 µM) was “could confirm the effects observed for the non-selective compound 1”. Besides, inhibition against SMN Tudor domain was half-maximal at 15.4 µM (IC50).
